ChEMBL document CHEMBL1201862, “PubChem BioAssay data set” (2004)
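Grown in 96-well plates, cells were treated for 48 hours with each compound at five concentrations. Insufficient inhibition: endpoint recorded as highest concentration tested. GI50: concentration for 50% inhibition of growth.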 Active and inactive are the calls of the source. Cut-off read from the data, not from the text of the source: active = GI50 up to about 1.1 µM and inactive = higher.

Experiments:
Test in all cases: growth of human tumour cells (NCI), 48 h
IGROV-1 = tested on: IGROV-1
A549 = tested on: A549
COLO 205 = tested on: COLO 205
HCT-15 = tested on: HCT-15
OVCAR-3 = tested on: OVCAR-3
OVCAR-4 = tested on: OVCAR-4
UO-31 = tested on: UO-31
CAKI-1 = tested on: CAKI-1
T47D = tested on: T47D
Malme-3M = tested on: Malme-3M
ACHN = tested on: ACHN
HOP-92 = tested on: HOP-92
HCT-116 = tested on: HCT-116
RXF 393 = tested on: RXF 393
NCI/ADR-RES = tested on: NCI/ADR-RES
CCRF-CEM = tested on: CCRF-CEM
SK-OV-3 = tested on: SK-OV-3
M14 = tested on: M14
DU-145 = tested on: DU-145
MOLT-4 = tested on: MOLT-4

SMILES: Clc1cc(Cl)cc(/N=C/C=C/Nc2cc(Cl)cc(Cl)c2)c1
- GI50 (IGROV-1): 22.6 µM (inactive)
- GI50 (A549): 18.3 µM (inactive)
- GI50 (COLO 205): 16.5 µM (inactive)
- GI50 (HCT-15): 14.9 µM
- GI50 (OVCAR-3): 13.7 µM (inactive)
- GI50 (OVCAR-4): 14.6 µM (inactive)
- GI50 (UO-31): 23.4 µM (inactive)
- GI50 (CAKI-1): 15.2 µM (inactive)
- GI50 (T47D): 22.9 µM (inactive)
- GI50 (Malme-3M): 30.5 µM (inactive)
- GI50 (ACHN): 20.1 µM (inactive)
- GI50 (HOP-92): 30.8 µM (inactive)
- GI50 (HCT-116): 15.5 µM (inactive)
- GI50 (RXF 393): 17.3 µM (inactive)
- GI50 (NCI/ADR-RES): 16.4 µM (inactive)
- GI50 (CCRF-CEM): 20.8 µM (inactive)
- GI50 (SK-OV-3): 35.5 µM (inactive)
- GI50 (M14): 22.3 µM (inactive)
- GI50 (DU-145): 21 µM (inactive)
- GI50 (MOLT-4): 19.8 µM (inactive)

SMILES: Oc1ccc(C(O)(c2ccccc2)c2ccccc2)c2ccccc12
- GI50 (IGROV-1): 1.87 µM (inactive)
- GI50 (A549): 3.27 µM (inactive)
- GI50 (COLO 205): 3.44 µM (inactive)
- GI50 (HCT-15): 1.22 µM
- GI50 (OVCAR-3): 1.42 µM (inactive)
- GI50 (OVCAR-4): 5.75 µM (inactive)
- GI50 (UO-31): 2.97 µM (inactive)
- GI50 (CAKI-1): 1.82 µM (inactive)
- GI50 (T47D): 2.77 µM (inactive)
- GI50 (Malme-3M): 10.2 µM (inactive)
- GI50 (ACHN): 1.77 µM (inactive)
- GI50 (HOP-92): < 0.01 µM (active)
- GI50 (HCT-116): 2.1 µM (inactive)
- GI50 (RXF 393): 3.75 µM (inactive)
- GI50 (NCI/ADR-RES): 2.1 µM (inactive)
- GI50 (CCRF-CEM): 0.019 µM (active)
- GI50 (SK-OV-3): 3.25 µM (inactive)
- GI50 (M14): 2.34 µM (inactive)
- GI50 (DU-145): 2.13 µM (inactive)
- GI50 (MOLT-4): 3.14 µM (inactive)
